Experimental data reported in the CheMixHub ionic liquid set.
± gives the uncertainty stated by the source.

Assay: xn = mol fraction of the nth substance listed
Conditions: 100 kPa

CCCC[n+]1ccn(C)c1.O=S(=O)([N-]S(=O)(=O)C(F)(F)F)C(F)(F)F + CCO
Conditions	viscosity [mPa·s]
305.12 K, x1 = 1	38.4 ± 2.3
306.03 K, x1 = 0.2688	4.76 ± 0.27
306.33 K, x1 = 0.5784	13.83 ± 0.74
306.33 K, x1 = 0.8264	24.6 ± 1.5
306.64 K, x1 = 0.2688	4.69 ± 0.26
306.64 K, x1 = 0.6609	16.39 ± 0.95
306.94 K, x1 = 0.2129	3.8 ± 0.19
307.24 K, x1 = 0.4215	8.27 ± 0.45
307.24 K, x1 = 0.4606	9.23 ± 0.51
308.15 K, x1 = 0.2688	4.53 ± 0.25
308.15 K, x1 = 0.6609	15.67 ± 0.91
308.45 K, x1 = 0.2129	3.67 ± 0.19
308.45 K, x1 = 0.6609	15.53 ± 0.89
308.45 K, x1 = 0.747	19.5 ± 1.1
308.76 K, x1 = 0.4215	7.93 ± 0.43
308.76 K, x1 = 0.5784	12.88 ± 0.69
308.76 K, x1 = 0.747	19.3 ± 1.1
309.06 K, x1 = 0.2688	4.44 ± 0.25
309.67 K, x1 = 0.4215	7.73 ± 0.41
309.67 K, x1 = 1	32.4 ± 1.9
309.97 K, x1 = 0.4606	8.58 ± 0.47
309.97 K, x1 = 0.747	18.6 ± 1
310.58 K, x1 = 0.747	18.3 ± 1
310.88 K, x1 = 0.2129	3.47 ± 0.18
310.88 K, x1 = 0.5784	12.12 ± 0.65
310.88 K, x1 = 0.8264	20.9 ± 1.3
311.18 K, x1 = 0.4606	8.31 ± 0.45
311.48 K, x1 = 0.2129	3.42 ± 0.17
311.79 K, x1 = 0.4606	8.18 ± 0.45
311.79 K, x1 = 0.5784	11.8 ± 0.63
311.79 K, x1 = 0.747	17.58 ± 0.96
311.79 K, x1 = 0.8264	20.3 ± 1.3
312.09 K, x1 = 0.2688	4.13 ± 0.23
312.09 K, x1 = 0.6609	13.95 ± 0.8
312.39 K, x1 = 0.2688	4.1 ± 0.23
312.39 K, x1 = 0.4606	8.05 ± 0.44
312.7 K, x1 = 0.2688	4.07 ± 0.23
313 K, x1 = 0.747	16.94 ± 0.92
313 K, x1 = 1	28.8 ± 1.7
313.3 K, x1 = 0.4215	7.02 ± 0.37
313.61 K, x1 = 0.8264	19 ± 1.2
313.91 K, x1 = 0.6609	13.23 ± 0.75
313.91 K, x1 = 0.747	16.47 ± 0.89
314.21 K, x1 = 0.2129	3.21 ± 0.16
314.21 K, x1 = 0.2688	3.93 ± 0.22
314.21 K, x1 = 0.747	16.32 ± 0.89
314.52 K, x1 = 0.5784	10.92 ± 0.58
314.52 K, x1 = 0.747	16.17 ± 0.87
314.82 K, x1 = 0.6609	12.88 ± 0.73
315.12 K, x1 = 0.8264	18.1 ± 1.1
315.42 K, x1 = 0.2688	3.82 ± 0.21
315.42 K, x1 = 0.6609	12.66 ± 0.72
315.73 K, x1 = 0.4215	6.59 ± 0.35
315.73 K, x1 = 0.5784	10.55 ± 0.56
315.73 K, x1 = 0.6609	12.55 ± 0.71
316.03 K, x1 = 0.2688	3.77 ± 0.21
316.33 K, x1 = 0.4606	7.27 ± 0.39
316.64 K, x1 = 0.4215	6.44 ± 0.34
316.64 K, x1 = 0.5784	10.29 ± 0.55
316.64 K, x1 = 1	25.4 ± 1.5
316.94 K, x1 = 0.6609	12.12 ± 0.69
316.94 K, x1 = 0.8264	17 ± 1
317.24 K, x1 = 0.6609	12.01 ± 0.68
317.55 K, x1 = 0.2688	3.64 ± 0.2
317.55 K, x1 = 0.4215	6.29 ± 0.33
317.55 K, x1 = 0.5784	10.03 ± 0.53
317.85 K, x1 = 0.4215	6.24 ± 0.33
317.85 K, x1 = 0.6609	11.8 ± 0.67
318.15 K, x1 = 0.2688	3.58 ± 0.2
318.15 K, x1 = 0.4606	6.94 ± 0.37
318.76 K, x1 = 0.4606	6.83 ± 0.37
318.76 K, x1 = 0.5784	9.69 ± 0.52
318.76 K, x1 = 1	23.7 ± 1.4
319.06 K, x1 = 0.2129	2.87 ± 0.15
319.67 K, x1 = 0.4215	5.97 ± 0.32
319.67 K, x1 = 0.747	13.83 ± 0.74
319.97 K, x1 = 0.4606	6.63 ± 0.36
319.97 K, x1 = 0.5784	9.37 ± 0.5
320.27 K, x1 = 0.5784	9.29 ± 0.49
320.27 K, x1 = 0.747	13.58 ± 0.73
320.27 K, x1 = 0.8264	15.24 ± 0.94
320.58 K, x1 = 0.4215	5.83 ± 0.31
321.18 K, x1 = 0.4606	6.43 ± 0.34
321.18 K, x1 = 0.6609	10.73 ± 0.61
321.48 K, x1 = 0.747	13.09 ± 0.7
321.79 K, x1 = 0.2688	3.29 ± 0.18
321.79 K, x1 = 0.4606	6.33 ± 0.34
322.09 K, x1 = 0.2129	2.67 ± 0.15
322.09 K, x1 = 0.4215	5.62 ± 0.29
322.09 K, x1 = 1	21.3 ± 1.2
322.39 K, x1 = 0.747	12.74 ± 0.79
322.7 K, x1 = 0.747	12.63 ± 0.78
323 K, x1 = 0.4606	6.15 ± 0.3
